The text below walks through data of patent US20110195924A1, “Methods of Inhibiting the Interaction Between S100P and the Receptor for Advanced Glycation End-Products” (priority 2008, published 2011).

Entries after “also recorded” stand apart in the source; their conditions may differ.

The target in assay [1] is T1, S100P binding with RAGE (Homo sapiens, UniProt P25815).
T1 construct: full-length human S100P cDNA (NM_005980) was cloned into the pTrcHis2 vector; His; made in house; host or cells: bacteria (S100P)
T1 sequence (P25815 1-95): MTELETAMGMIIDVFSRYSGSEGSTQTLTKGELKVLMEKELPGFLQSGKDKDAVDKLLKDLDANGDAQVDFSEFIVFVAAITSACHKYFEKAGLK
In words: ELISA of S100P binding to RAGE (sRAGE coated plate). Particulars: analogs at 10-fold lower concentration than cromolyn. Here is the method: After removing un-bound S100P by washing with detergent, the bound S100P and RAGE complex was quantified by adding HRP labeled antibody against S100P. *, P=0.04 C5 1 μM versus cromolyn 5 μM. Two-tailed two-sample (unpaired) Student's t-tests were used to determine P values.
The plate was washed and the amount of bound S100P was quantitated using anti-S100P antibody.
The binding of S100P to RAGE was determined using an ELISA assay. sRAGE was attached to the dish and recombinant S100P (50 ng) was added with or without the indicated concentrations of cromolyn analogs. The plate was washed and the amount of bound S100P was quantitated using anti-S100P antibody.
For orientation: An ELISA detects its analyte on a solid surface through an enzyme-linked reagent.

In assay [2] the test system is pancreatic cancer cells. In words: Apoptosis of pancreatic cancer cells with cromolyn analogs and cytotoxic drugs. The class given is cell-based. The procedure:
(§1) Various cromolyn-based analogs were developed. The effects of the analogs on binding of S100P with RAGE were evaluated for the analogs using a sandwich ELISA. The effectiveness of the analogs to block cancer cell proliferatin and increase apoptosis in vitro were analyzed with and without cisplatin, 5-flurouracil and gemcitabine by MTS and FACS analysis. We also examined the ability of the analogs to inhibit S100P activation of NFkB signaling in cancer cells in vitro and in vivo. Finally, the effects of the novel analogs on tumor growth in vivo was evaluated. One analog, C5OH is shown below:
In this in vitro study, pancreatic cancer cells were treated with gemcitabine alone or in the presence of cromolyn analogs. The cromolyn analogs themselves have very little effect on the rates of cellular apoptosis, supporting their absence of general toxicity. However, all cromolyn analogs increased the killing of pancreatic cancer cells by gemcitabine.

Assay [3] has as its system MPanc96 tumors. In words: MPanc96 pancreatic tumor growth and survival in mice (analogs). In kind it is in vivo. The procedure: as §1
Animals were implanted with MPanc96 cells, a gemcitabine resistant model of pancreatic cancer, and then treated with gemcitabine, C5OH, or the combination. […] Noteworthy, the addition of the hydroxyl group to the carbon chain in C5 allows easy modifications of this molecule. The hydroxyl can be substituted with fluoride that can be labeled for in vivo PET imaging. This hydroxyl can also be used to develop a pro-drug form of C5 by attaching other components with an ester bond.

The subject of assay [4] is NFkB activity. In words: S100P induced NFkB activity in cancer cells (analogs). The class given is cell-based. Here is the method: Various cromolyn-based analogs were developed. The effects of the analogs on binding of S100P with RAGE were evaluated for the analogs using a sandwich ELISA. The effectiveness of the analogs to block cancer cell proliferatin and increase apoptosis in vitro were analyzed with and without cisplatin, 5-flurouracil and gemcitabine by MTS and FACS analysis. We also examined the ability of the analogs to inhibit S100P activation of NFkB signaling in cancer cells in vitro and in vivo. Finally, the effects of the novel analogs on tumor growth in vivo was evaluated.

The test system of assay [5] is Panc-1 cells. In words: Panc-1 cell proliferation (MTS). In kind it is cell-based. Particulars: Panc-1. The procedure: Panc-1 pancreatic adenocarcinoma cells (1.0×10^3 cells/well) were cultured in the presence or absence of S100P (100 nM) and with or without cromolyn (100 μM), and cell proliferation was analyzed at 24, 48, and 72 hours. Means and 95% confidence intervals of three independent experiments performed in triplicate are shown. *, P=0.001, S100P alone versus S100P+cromolyn.
Panc-1 cells were plated at 1.0×10^3 cells/well and treated with platelet-derived growth factor (10 ng/mL) with or without cromolyn (100 μM), and cell proliferation was analyzed after 48 hours. Means and 95% confidence intervals of three independent experiments performed in triplicate are shown. *, P=0.004 PDGF and P=0.022 cromolyn+PDGF versus control.
Growth of Panc-1 and BxPC3 pancreatic adenocarcinoma cells was analyzed using MTS reagent (Promega, Madison, Wis.) according to the manufacturer's directions. Purified S100P (100 nM final concentration) with or without cromolyn (100 μM final concentration) was added to Panc-1 cells. Only cromolyn (0-100 μM) was added to BxPC-3 cells, which express endogenous S100P. For both cell models, 1.0×10^3 cells/well were plated in 96-well culture dishes. Cells were treated with S100P, PDGF, or cromolyn, or a combination, followed immediately by treatment with either S100P or PDGF. MTS (20 μL per well) was added to cells at various times, and the mixture was incubated for 1 hour at 37° C. Samples were then read at 490 nm (as O.D. units) on a uQuant-Microplate Spectrophotometer (Bio-Tek Services Inc., Richmond, Va.). The assay was performed three times in triplicate.

In assay [6] the test system is Panc-1 cells. In words: Panc-1 matrigel invasion assay. In kind it is cell-based. Particulars: Panc-1; S100P 100 nM alone, 24 hours. The procedure: FIGS. 2A-2D show the effect of cromolyn on pancreatic cancer cell invasion. Panc-1 and BxPC-3 cells were plated in Bio-coat matrigel and control chambers and cultured in serum-free culture media. After 24 hours non-invaded cells in the upper chamber were removed, and cells that invaded onto the lower surface of the membrane were counted from five adjacent fields. […] Data are expressed as the percent invasion through the matrigel matrix and membrane relative to migration through the control membrane. Means and 95% confidence intervals from three independent experiments performed in triplicate are shown. Two-tailed two-sample (unpaired) Student's t-tests were used to determine P values.
Panc-1 and BxPC-3 cells were seeded in BIOCOAT matrigel invasion chambers and in control chambers without matrigel (Becton-Dickinson, Bedford, Mass.) according to the manufacturer's protocol. Panc-1 cells were seeded with S100P (100 nM) with or without cromolyn (100 μM), and BxPC-3 cells were seeded with or without cromolyn (1-100 μM). Briefly, 2.0×10^5 cells in 300 μL top solution (serum-free media) were added to each chamber and allowed to invade matrigel for 24 hours at 37° C. in a 5% CO2 atmosphere. The non-invading cells on the upper surface of membrane were removed from the chambers with a cotton swab, and the invading cells on the lower surface of the membrane were fixed and stained using a Diff-Quick stain kit (Becton Dickinson, Bedford, Mass.). After two washes with water, the chambers were allowed to air dry. The numbers of invading cells in five adjacent microscope fields per membrane were counted at 20× magnification to obtain the average number of cells per field. Data are expressed as the percent invasion through the matrigel matrix and membrane relative to the migration through the control membrane. The assays were performed three times.

The subject of assay [7] is NFκB promoter activity. In words: NFκB luciferase reporter assay in Panc-1 cells. Particulars: 5 hours. The class given is cell-based. The procedure:
FIGS. 3A, 3B, and 3C show the effect of cromolyn on S100P stimulated NFκB promoter activity in pancreatic cancer cells in vitro and in vivo. Panc-1 and BxPC-3 pancreatic cancer cell lines stably expressing an NFκB luciferase reporter were examined for the effects of S100P and cromolyn. […] Means and 95% confidence intervals are shown for three independent experiments performed in triplicate. *, P=0.022, †, P<0.001, and P<0.001 versus control; #, P=0.005 versus 100 nM S100P alone. […] Means and 95% confidence intervals are shown for three independent experiments performed in triplicate. *, P=0.003, †, P<0.001 versus control. […] After 1 week, tumor growth was assessed and NFκB activity was analyzed using an IVIS system (Xenogen Corp., Alameda, Calif.) after injecting mice with D-luciferin (150 mg per kg body weight) (0 time point). The mice were treated with cromolyn (5 mg per kg body weight by intraperitoneal injection), and NFκB luciferase activity was analyzed again at 24 and 48 hours. *, P=0.005 versus control. Means and 95% confidence intervals are shown for two independent experiments (n=4 mice per group). Two-tailed two-sample (unpaired for in vitro and paired for in vivo studies) Student's t-tests were used to determine P values.
To study pancreatic cancer cell NFκB activity, a lentivirus NFκB luciferase reporter gene construct was developed. The NFκB luciferase reporter gene was excised and isolated from the pNF-κB-Luc Vector (Clonetec, Mountain View, Calif.) and cloned into the lentiviral vector FG9 (Gift from Dr. Xiao-Feng Qin, Dept. of Immunology, M.D. Anderson Cancer Center replacing the CMV/LTR and UBiC promoters, to form Lenti-NFκB-Luc. Lentiviral NFκB vector were co-transfected with packaging constructs pRSVREV, pMDLg/pRRE, and the VSV-G expression plasmid pHCMVG, and lentivirus was produced in 293T cells by the calcium transfection method, as previously described in Qin, et al., Inhibiting HIV-1 infection in human T cells by lentiviral-mediated delivery of small interfering RNA against CCR5; Proc. Natl. Acad. Sci. U.S.A. 2003 Jan. 7; 100(1):183-8. […] Functional validation of NFκB reporter activity was conducted in vitro using TNF-α (20 ng/mL, Sigma, St. Louis, Mo.) as a positive control.
BxPC-3 and Panc-1 cells stably expressing a Lenti-NFkB-luc reporter construct were treated with S100P, cromolyn, or the combination for 5 hours. D-luciferin (150 μg/mL) was added to the cells, and luciferase activity was measured using an IVIS bioluminescence system (Xenogen Co. Alameda, Calif.). Each experiment was conducted three times in triplicate.
Background: In a reporter assay the amount or activity of a reporter protein is the signal.

The mark [8] stands for this setting: MPanc96, gemcitabine resistant model, to a greater extent than gemcitabine.

On to `O=C([O-])c1cc(=O)c2c(OCCC(O)CCOc3cccc4oc(C(=O)[O-])cc(=O)c34)cccc2o1.[Na+].[Na+]` [C5OH], for which, in assay [1], the “potency in blocking S100P binding to RAGE relative to cromolyn or C5” value is “nearly equally potent and more efficient than cromolyn; also recorded: at least as effective as the C5-analog”. For the same molecule, the “cancer cell apoptosis in response to various cytoxic treatments, relative to cromolyn” value in assay [2] was “at lesser concentrations and to a greater extent than did cromolyn”. In assay [2] (with gemcitabine, C5 and C5OH at 10-fold lower concentration than cromolyn), the “killing of pancreatic cancer cells by gemcitabine” value is “worked equally well”. Moreover, in assay [3] (setting [8]), the “survival of mice with pancreatic tumors” value is given as “prolongs survival” and the tumor growth result is given as “reduces tumor growth”. The “effects relative to gemcitabine” value in assay [3] (MPanc96 model) was “superior to those of gemcitabine”. Further, in assay [3] (mouse, in vivo), the “inhibition of tumor growth and survival in vivo, relative to cromolyn” value is on record as “superior to cromolyn”. Also, the “inhibition of S100P induced NFkB activity relative to cromolyn” value in assay [4] was “more potently and effectively than did cromolyn”.
For the molecule PDGF, the “cell proliferation, difference versus control” value in assay [5] (PDGF 10 ng/mL, 48 hours) amounted to 0.2 MTS units. Also, the “cell proliferation, mean” value in assay [5] (PDGF 10 ng/mL, 48 hours, control mean 0.5) stood at 0.7 MTS units.

B1: S100P: purified His-tagged full-length human S100P protein, 95-amino acid member of the S100 family (protein, UniProt P25815 1-95, looked up)
Protein S100-P: T1 sequence (P25815 1-95)
modifications: His tag
notes: purified His-tagged full-length human S100P protein, 95-amino acid member of the S100 family
With B1, the “cell proliferation, mean” value in assay [5] (S100P 100 nM alone) is on record as 0.93 MTS units. Besides, the “cells invaded, mean” value in assay [6] was 58.0%. In addition, the “NFκB promoter activity, difference versus 0 nM” value in assay [7] (S100P 1 nM) was 3544 photons/sec; in assay [7] (S100P 10 nM), 5400 photons/sec; in assay [7] (S100P 100 nM), 11100 photons/sec. For the same molecule, the “NFκB promoter activity, mean” value in assay [7] (S100P 1 nM, 0 nM mean 3358) is recorded as 6902 photons/sec; in assay [7] (S100P 10 nM), 8758 photons/sec; in assay [7] (S100P 100 nM), 14460 photons/sec.
